Key:
human P2X2/3 receptor = human P2X2/3 receptor (Homo sapiens (Human), UniProt P56373+Q9UBL9); assay: Inhibitory activity on human P2X2/3 receptor (calcium 6 dye FLIPR assay, agonist α,β-MeATP); type: cell-based; conditions: HEK293-P2X2/3 stably expressing cell line, FLIPR Tetra
Protocol: (§1) Biological Assay: Determination of the Inhibitory Activity of the Compounds on Human P2X3 and P2X2/3 Receptors
(§2) Cells were seeded into a poly-D-lysine-coated 384-well cell culture plate (Corning) at a density of 11,000 cells/well/25 μL of cell inoculation medium, and were cultured in a cell incubator overnight. On the day of the test, the calcium 6 dye was diluted to a 2× concentration with a assay buffer, 25 μL of the 2× calcium 6 dye was added to the 384-well cell culture plate, which was incubated at 37° C. for 2 hours, and then placed at room temperature for further use. The test compound and the agonist, α,β-MeATP were diluted to a 7× concentration with the assay buffer, 10 μL of the 7× test compound was added to the 384-well cell culture plate, which was incubated at room temperature for 15 minutes, and 10 μL of the 7× α,β-MeATP was transferred into the 384-well cell culture plate. The data were measured and analyzed using FLIPR Tetra, and the half inhibitory concentration (IC50) of the test compound on P2X3 and P2X2/3 receptors was calculated with the GraphPad Prism four-parameter equation.
(§3) Cell lines: human embryonic kidney cells HEK293-P2X3 and HEK293-P2X2/3 stably expressing cell lines;
(§4) Complete cell culture medium: DMEM High Glucose (Life Technology), which contained 10% fetal bovine serum, 4 mM GlutaMAX, 1% penicillin-streptomycin, and 350 μg/mL G418;
(§5) Cell inoculation medium: DMEM High Glucose (Life Technology), which contained 2% fetal bovine serum, and 4 mM GlutaMAX;
(§6) Cell culture conditions: 37° C., 5% CO2;
(§7) Assay buffer: HBSS (containing calcium and magnesium ions), which contained 20 mM HEPES;
(§8) Detection equipment: FLIPR Tetra (Molecular Devices);

human P2X3 receptor = human P2X3 receptor (Homo sapiens (Human), UniProt P56373); assay: Inhibitory activity on human P2X3 receptor (calcium 6 dye FLIPR assay, agonist α,β-MeATP); type: cell-based; conditions: HEK293-P2X3 stably expressing cell line, FLIPR Tetra
human P2X3 receptor, sequence (P56373 whole entry): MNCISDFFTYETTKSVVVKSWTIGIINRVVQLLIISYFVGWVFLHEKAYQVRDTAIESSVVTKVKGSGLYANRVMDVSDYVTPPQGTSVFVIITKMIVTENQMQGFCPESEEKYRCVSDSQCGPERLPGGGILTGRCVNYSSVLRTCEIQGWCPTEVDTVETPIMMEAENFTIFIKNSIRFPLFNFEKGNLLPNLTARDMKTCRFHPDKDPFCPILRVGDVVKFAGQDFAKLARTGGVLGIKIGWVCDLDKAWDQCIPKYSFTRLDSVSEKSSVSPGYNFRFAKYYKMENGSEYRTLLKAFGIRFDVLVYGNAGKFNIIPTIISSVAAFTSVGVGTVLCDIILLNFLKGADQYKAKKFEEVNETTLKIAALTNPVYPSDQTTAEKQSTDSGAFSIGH
Protocol: as §1, §2, §3, §4, §5, §6, §7, §8

human P2X2/3 receptor, sequence (Q9UBL9 whole entry): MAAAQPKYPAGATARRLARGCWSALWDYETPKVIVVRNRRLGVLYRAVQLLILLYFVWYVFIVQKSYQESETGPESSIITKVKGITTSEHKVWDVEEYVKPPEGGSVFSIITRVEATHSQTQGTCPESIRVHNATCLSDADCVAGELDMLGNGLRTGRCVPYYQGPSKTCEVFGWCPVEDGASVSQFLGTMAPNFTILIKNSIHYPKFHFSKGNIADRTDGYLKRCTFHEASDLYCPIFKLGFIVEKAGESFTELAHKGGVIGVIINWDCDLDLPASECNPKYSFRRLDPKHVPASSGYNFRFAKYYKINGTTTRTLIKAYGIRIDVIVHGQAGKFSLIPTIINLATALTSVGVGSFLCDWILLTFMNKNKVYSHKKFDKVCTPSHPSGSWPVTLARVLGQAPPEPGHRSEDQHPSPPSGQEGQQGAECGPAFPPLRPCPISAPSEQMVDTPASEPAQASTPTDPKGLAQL
human P2X2/3 receptor, sequence (P56373 whole entry): as the sequence (P56373 whole entry) above

## CC(C)CNc1nc(N)ncc1Oc1cc(C2CC2)ncc1C(C)C [Compound C194, 5-((2-cyclopropyl-5-isopropyl-pyridin-4-yl)oxy)-N^4-isobutyl-pyrimidine-2,4-diamine]
Human P2X2/3 receptor
  IC50: 446 nM
Human P2X3 receptor
  IC50: 322 nM

## C=C(C)c1cnc(OC)cc1Cc1cnc(N)nc1N [Compound C196, 5-((2-methoxy-5-(prop-1-en-2-yl)pyridin-4-yl)methyl)pyrimidine-2,4-diamine]
Human P2X2/3 receptor
  IC50: 652 nM
Human P2X3 receptor
  IC50: 208 nM

## CC(C)c1cnc(Br)cc1Oc1cnc(N)nc1NCCN [Compound C199, N^4-(2-aminoethyl)-5-((2-bromo-5-isopropylpyridin-4-yl)oxy)pyrimidine-2,4-diamine]
Human P2X2/3 receptor
  IC50: 333 nM
Human P2X3 receptor
  IC50: 186 nM

## CC(C)c1cnc(Br)cc1Oc1cnc(N)nc1NCCOCCO [Compound C201, 2-(2-((2-amino-5-((2-bromo-5-isopropylpyridin-4-yl)oxy)pyrimidin-4-yl)amino)ethoxy) ethanol]
Human P2X2/3 receptor
  IC50: 498 nM
Human P2X3 receptor
  IC50: 316 nM

## CNCCNc1nc(N)ncc1Oc1cc(Br)ncc1C(C)C [Compound C202, 5-((2-bromo-5-isopropylpyridin-4-yl)oxy)-N^4-(2-(methylamino)ethyl)pyrimidine-2,4-diamine]
Human P2X2/3 receptor
  IC50: 166 nM
Human P2X3 receptor
  IC50: 103 nM

## CC(C)c1cnc(Br)cc1Oc1cnc(N)nc1NCCN1CCOCC1 [Compound C203, 5-((2-bromo-5-isopropylpyridin-4-yl)oxy)-N^4-(2-morpholinoethyl) pyrimidine-2,4-diamine]
Human P2X2/3 receptor
  IC50: 275 nM
Human P2X3 receptor
  IC50: 157 nM

## C=C(C)c1cnc(SC)cc1Oc1cnc(N)nc1N [Compound C208, 5-((2-(methylthio)-5-(prop-1-en-2-yl)pyridin-4-yl)oxy)pyrimidine-2,4-diamine]
Human P2X2/3 receptor
  IC50: 106 nM
Human P2X3 receptor
  IC50: 75.3 nM

## CC[C@@H](CO)Nc1nc(N)ncc1Oc1cc(Br)ncc1C(C)C [Compound C209, (S)-2-((2-amino-5-((2-bromo-5-isopropylpyridin-4-yl)oxy)pyrimidin-4-yl)amino)but-1-ol]
Human P2X2/3 receptor
  IC50: 209 nM
Human P2X3 receptor
  IC50: 144 nM

## CC(C)c1cnc(Br)cc1Oc1cnc(N)nc1NCCN1CCCC1 [Compound C210, 5-((2-bromo-5-isopropylpyridin-4-yl)oxy)-N^4-(2-(pyrrolidin-1-yl)ethyl) pyrimidine-2,4-diamine]
Human P2X2/3 receptor
  IC50: 399 nM
Human P2X3 receptor
  IC50: 269 nM

## C#Cc1cc(Oc2cnc(N)nc2NCCO)c(C(C)C)cn1 [Compound C211, 2-((2-amino-5-((2-ethynyl-5-isopropylpyridin-4-yl)oxy)pyrimidin-4-yl)amino)ethanol]
Human P2X2/3 receptor
  IC50: 121 nM
Human P2X3 receptor
  IC50: 64 nM

## C#Cc1cc(Oc2cnc(N)nc2NC(C)C)c(C(C)C)cn1 [Compound C212, 5-((2-ethynyl-5-isopropylpyridin-4-yl)oxy)-N^4-isopropylpyrimidine-2,4-diamine]
Human P2X2/3 receptor
  IC50: 123 nM
Human P2X3 receptor
  IC50: 81 nM

## C#Cc1cc(Oc2cnc(N)nc2NC)c(C(C)C)cn1 [Compound C213, 5-((2-ethynyl-5-isopropylpyridin-4-yl)oxy)-N^4-methylpyrimidine-2,4-diamine]
Human P2X2/3 receptor
  IC50: 295 nM
Human P2X3 receptor
  IC50: 112 nM

## C=C(C)c1cnc(NCC)cc1Oc1cnc(N)nc1N [Compound C214, 5-((2-(ethylamino)-5-(prop-1-en-2-yl)pyridin-4-yl)oxy)pyrimidine-2,4-diamine]
Human P2X2/3 receptor
  IC50: 72 nM
Human P2X3 receptor
  IC50: 44 nM

## C#Cc1cc(Oc2cnc(N)nc2N)c(C(=C)C)cn1 [Compound C215, 5-((2-ethynyl-5-(prop-1-en-2-yl)pyridin-4-yl)oxy) pyrimidine-2,4-diamine]
Human P2X2/3 receptor
  IC50: 194 nM
Human P2X3 receptor
  IC50: 88.2 nM

## C#Cc1cc(Oc2cnc(N)nc2NCC(O)CO)c(C(C)C)cn1 (centres unmarked) [Compound C216, 3-((2-amino-5-((2-ethynyl-5-isopropylpyridin-4-yl)oxy)pyrimidin-4-yl)amino)propane-1,2-diol]
Human P2X2/3 receptor
  IC50: 65 nM
Human P2X3 receptor
  IC50: 62 nM

## CC(C)c1cnc(Cl)cc1Oc1cnc(NC(CO)CO)nc1N [Compound C218, 2-((4-amino-5-((2-chloro-5-isopropyl-pyridin-4-yl)oxy)pyrimidin-2-yl)amino) propane-1,3-diol]
Human P2X2/3 receptor
  IC50: 383 nM
Human P2X3 receptor
  IC50: 186 nM

## CC(C)c1cnc(Br)cc1Oc1cnc(N)nc1NNC(=O)OC(C)(C)C [Compound C222, tert-butyl 2-(2-amino-5-((2-bromo-5-isopropylpyridin-4-yl)oxy)pyrimidin-4-yl)hydrazine-1-carboxylate]
Human P2X2/3 receptor
  IC50: 40 nM
Human P2X3 receptor
  IC50: 48 nM

## CC(C)c1cnc(Br)cc1Oc1cnc(NCCO)nc1NCCO [Compound C226, 2,2′-((5-((2-bromo-5-isopropylpyridin-4-yl)oxy)pyrimidin-2,4-diyl)bis(azanediyl))diethanol]
Human P2X2/3 receptor
  IC50: 155 nM
Human P2X3 receptor
  IC50: 115 nM

## C#Cc1cc(Oc2cnc(NC(CO)CO)nc2N)c(C(C)C)cn1 [Compound C228, 2-((4-amino-5-((2-ethynyl-5-isopropyl-pyrdin-4-yl)oxy)pyrimidin-2-yl)amino) propane-1,3-diol]
Human P2X2/3 receptor
  IC50: 125 nM
Human P2X3 receptor
  IC50: 119 nM

## C#Cc1cc(Oc2cnc(NCC(O)CO)nc2N)c(C(C)C)cn1 (centres unmarked) [Compound C229, 3-((4-amino-5-((2-ethynyl-5-isopropyl-pyridin-4-yl)oxy)pyrimidin-2-yl)amino) propane-l,2-diol]
Human P2X2/3 receptor
  IC50: 113 nM
Human P2X3 receptor
  IC50: 65 nM

## C#Cc1cc(Oc2cnc(NCCO)nc2N)c(C(C)C)cn1 [Compound C230, 2-((4-amino-5-((2-ethynyl-5-isopropyl-pyridin-4-yl)oxy)pyrimidin-2-yl)amino) ethanol]
Human P2X2/3 receptor
  IC50: 106 nM
Human P2X3 receptor
  IC50: 60 nM

## C#Cc1cc(Oc2cnc(NC(C)C)nc2N)c(C(C)C)cn1 [Compound C233, 5-((2-ethynyl-5-isopropyl-pyrdin-4-yl)oxy)-N^2-isopropyl-pyrmidine-2,4-diamine]
Human P2X2/3 receptor
  IC50: 125 nM
Human P2X3 receptor
  IC50: 72 nM

## CC(C)c1cnc(Br)cc1Oc1cnc(NCC(O)CO)nc1N (centres unmarked) [Compound C235, 3-((4-amino-5-((2-bromo-5-isopropyl-pyridin-4-yl)oxy)pyrimidin-2-yl)amino) propane-1,2-diol]
Human P2X2/3 receptor
  IC50: 145 nM
Human P2X3 receptor
  IC50: 90 nM

## CC(C)c1cnc(Br)cc1Oc1cnc(NCCO)nc1N [Compound C236, 2-((4-amino-5-((2-bromo-5-isopropyl-pyridin-4-yl)oxy)pyrimidin-2-yl)amino)ethanol]
Human P2X2/3 receptor
  IC50: 134 nM
Human P2X3 receptor
  IC50: 88 nM

## CNc1ncc(Oc2cc(Br)ncc2C(C)C)c(N)n1 [Compound C237, 5-((2-bromo-5-isopropylpyridin-4-yl)oxy)-N^2-methylpyrimidine-2,4-diamine]
Human P2X2/3 receptor
  IC50: 781 nM
Human P2X3 receptor
  IC50: 363 nM

## CC(C)c1cnc(Br)cc1Oc1cnc(NC2CC2)nc1N [Compound C238, 5-((2-bromo-5-isopropylpyridin-4-yl)oxy)-N^2-cyclopropyl-pyrimidine-2,4-diamine]
Human P2X2/3 receptor
  IC50: 206 nM
Human P2X3 receptor
  IC50: 104 nM

## CC(C)Nc1ncc(Oc2cc(Br)ncc2C(C)C)c(N)n1 [Compound C239, 5-((2-bromo-5-isopropylpyridin-4-yl)oxy)-N^2-isopropyl-pyrimidine-2,4-diamine]
Human P2X2/3 receptor
  IC50: 131 nM
Human P2X3 receptor
  IC50: 107 nM

## CC(C)c1ncc(Cl)cc1Oc1cnc(N)nc1N [Reference Compound C10, 5-((5-chloro-2-isopropylpyridin-3-yl)oxy)pyrimidine-2,4-diamine, reference compound]
Human P2X2/3 receptor
  IC50: 1820 nM
Human P2X3 receptor
  IC50: 2510 nM
